Measurements from patent publication US8344008B2 (Janssen Pharmaceutica NV, priority 2007, dated 2013).
Structures can show the parent of a compound that is named as a salt.

Target: T1, recombinant human LTA4 hydrolase (rhLTA4H) (Homo sapiens, UniProt P09960)
T1 construct: made in house; host or cells: Spodoptera frugiperda (Sf-9) cells, baculovirus (pFastBac1)
T1 sequence (P09960 1-611): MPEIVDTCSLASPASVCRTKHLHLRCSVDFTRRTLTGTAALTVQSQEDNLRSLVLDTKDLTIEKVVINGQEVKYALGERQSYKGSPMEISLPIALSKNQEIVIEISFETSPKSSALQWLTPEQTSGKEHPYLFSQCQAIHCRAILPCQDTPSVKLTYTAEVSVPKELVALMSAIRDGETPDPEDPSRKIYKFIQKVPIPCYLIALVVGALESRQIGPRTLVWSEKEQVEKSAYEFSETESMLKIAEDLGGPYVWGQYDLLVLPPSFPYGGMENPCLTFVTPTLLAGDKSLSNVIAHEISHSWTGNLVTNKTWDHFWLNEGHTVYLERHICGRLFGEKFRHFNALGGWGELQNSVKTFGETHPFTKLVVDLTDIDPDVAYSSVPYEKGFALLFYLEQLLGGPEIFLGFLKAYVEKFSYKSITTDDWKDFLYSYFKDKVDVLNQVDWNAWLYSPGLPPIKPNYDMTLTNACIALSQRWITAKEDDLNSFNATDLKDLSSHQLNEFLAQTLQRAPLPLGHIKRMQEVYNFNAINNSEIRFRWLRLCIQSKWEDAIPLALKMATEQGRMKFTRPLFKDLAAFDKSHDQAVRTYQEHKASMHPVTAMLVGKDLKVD
Experiment: Recombinant Human LTA4 Hydrolase Assay for LTA4 Hydrolase Inhibitor Activity
Assay type: biochemical
Settings: average of results obtained; LTB4 quantified by enzyme-linked immunoassay
Summary of the method: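 LTB4 formation, quantified by EIA after 10 min at rt, was the read-out once 9 ng LTA4 (free acid) was added to recombinant human enzyme (36 ng, Sf-9 expressed) that had sat 10 min with compound. Buffer: 0.1 M potassium phosphate pH 7.4 with fatty-acid-free BSA; IC50 by 4-parameter fit.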

Row | Ki | Compound
1 | 47 nM | NC(=O)N[C@@H]1C[C@H]2CC[C@@H](C1)N2CCc1ccc(Oc2nc3ccc(F)cc3s2)cc1 [Example 179, meso-exo-(8-{2-[4-(6-Fluoro-benzothiazol-2-yloxy)-phenyl]-ethyl}-8-aza-bicyclo[3.2.1]oct-3-yl)-urea]
2 | 34 nM | O=C([C@H]1CCOC1)N1C[C@@H]2C[C@H]1CN2Cc1ccc(Oc2nc3ccccc3s2)cc1 [Example 13, (S,S,S)-{5-[4-(Benzothiazol-2-yloxy)-benzyl]-2,5-diaza-bicyclo[2.2.1]hept-2-yl}-(tetrahydro-furan-3-yl)-methanone]
3 | 31 nM | CC(C)(O)C(=O)N1C[C@@H]2C[C@H]1CN2Cc1ccc(Oc2nc3ccccc3s2)cc1 [Example 12, (S,S)-1-{5-[4-(Benzothiazol-2-yloxy)-benzyl]-2,5-diaza-bicyclo[2.2.1]hept-2-yl}-2-hydroxy-2-methyl-propan-1-one]
4 | 264 nM | CC(=O)N1[C@@H]2CC[C@H]1C[C@H](NCCc1ccc(Oc3nc4c(Cl)cccc4s3)cc1)C2 [Example 275, meso-exo-1-(3-{2-[4-(4-Chloro-benzothiazol-2-yloxy)-phenyl]-ethylamino}-8-aza-bicyclo[3.2.1]oct-8-yl)-ethanone]
5 | 100 nM | Cc1ccc2nc(Oc3ccc(CCN4[C@@H]5CC[C@H]4C[C@@H](NC(N)=O)C5)cc3)sc2c1 [Example 261, meso-endo-(8-{2-[4-(6-Methyl-benzothiazol-2-yloxy)-phenyl]-ethyl}-8-aza-bicyclo[3.2.1]oct-3-yl)-urea]
6 | 2 nM | NC(=O)N[C@H]1C[C@H]2CC[C@@H](C1)N2Cc1ccc(Oc2nc3ccccc3s2)cc1 [Example 60, meso-endo-{8-[4-(Benzothiazol-2-yloxy)-benzyl]-8-aza-bicyclo[3.2.1]oct-3-yl}-urea]
7 | 20 nM | CS(=O)(=O)N1C[C@@H]2C[C@H]1CN2CCOc1ccc(Oc2nc3ccccc3s2)cc1 [Example 49, (S,S)-2-{4-[2-(5-Methanesulfonyl-2,5-diaza-bicyclo[2.2.1]hept-2-yl)-ethoxy]-phenoxy}-benzothiazole]
8 | 29 nM | CS(=O)(=O)N[C@@H]1C[C@H]2CC[C@@H](C1)N2CCOc1ccc(Oc2nc3ccc(F)cc3s2)cc1 [Example 284, meso-exo-N-(8-{2-[4-(6-Fluoro-benzothiazol-2-yloxy)-phenoxy]-ethyl}-8-aza-bicyclo[3.2.1]oct-3-yl)-methanesulfonamide]
9 | 6 nM | CC(=O)N[C@@H]1C[C@H]2CC[C@@H](C1)N2Cc1ccc(Oc2nc3ccc(F)cc3s2)cc1 [Example 272, meso-exo-N-{8-[4-(6-Fluoro-benzothiazol-2-yloxy)-benzyl]-8-aza-bicyclo[3.2.1]oct-3-yl}-acetamide]
10 | 10 nM | COCC(=O)N1C[C@@H]2C[C@H]1CN2CCOc1ccc(Oc2nc3ccccc3s2)cc1 [Example 22, (S,S)-1-(5-{2-[4-(Benzothiazol-2-yloxy)-phenoxy]-ethyl}-2,5-diaza-bicyclo[2.2.1]hept-2-yl)-2-methoxy-ethanone]
11 | 10 nM | O=C(CO)N1C[C@@H]2C[C@H]1CN2Cc1ccc(Oc2nc3ccccc3s2)cc1 [Example 10, (S,S)-1-{5-[4-(Benzothiazol-2-yloxy)-benzyl]-2,5-diaza-bicyclo[2.2.1]hept-2-yl}-2-hydroxy-ethanone]
12 | 40 nM | NC(=O)N1C[C@H]2C[C@@H]1CN2CCc1ccc(Oc2nc3ccc(Cl)cc3s2)cc1 [Example 246, (R,R)-5-{2-[4-(6-Chloro-benzothiazol-2-yloxy)-phenyl]-ethyl}-2,5-diaza-bicyclo[2.2.1]heptane-2-carboxylic acid amide]
13 | 33 nM | O=C(c1ccno1)N1CC2CN(Cc3ccc(Oc4nc5ccccc5s4)cc3)CC2C1 (centres unmarked) [Example 114, {5-[4-(Benzothiazol-2-yloxy)-benzyl]-hexahydro-pyrrolo[3,4-c]pyrrol-2-yl}-isoxazol-5-yl-methanone]
14 | 135 nM | O=C(c1ccsc1)N1CC2CN(Cc3ccc(Oc4nc5ccccc5s4)cc3)CC2C1 (centres unmarked) [Example 109, {5-[4-(Benzothiazol-2-yloxy)-benzyl]-hexahydro-pyrrolo[3,4-c]pyrrol-2-yl}-thiophen-3-yl-methanone]
15 | 174 nM | NC(=O)N1C2CCC1CN(Cc1ccc(Oc3nc4ccccc4s3)cc1)C2 [Example 59, meso-3-[4-(Benzothiazol-2-yloxy)-benzyl]-3,8-diaza-bicyclo[3.2.1]octane-8-carboxylic acid amide]
16 | 651 nM | CS(=O)(=O)N1C[C@@H]2C[C@H]1CN2CCc1ccc(Oc2nc3ccc(Cl)cc3s2)cc1 [Example 238, (S,S)-6-Chloro-2-{4-[2-(5-methanesulfonyl-2,5-diaza-bicyclo[2.2.1]hept-2-yl)-ethyl]-phenoxy}-benzothiazole]

Row | Ki | Compound
17 | 793 nM | NC(=O)N1C[C@H]2C[C@@H]1CN2Cc1ccc(Oc2nc3cccc(Cl)c3s2)cc1 [Example 196, (R,R)-5-[4-(7-Chloro-benzothiazol-2-yloxy)-benzyl]-2,5-diaza-bicyclo[2.2.1]heptane-2-carboxylic acid amide]
18 | 66 nM | O=C(N1C[C@@H]2C[C@H]1CN2CCc1cccc(Oc2nc3ccccc3s2)c1)C1(O)CC1 [Example 18, (S,S)-(5-{2-[3-(Benzothiazol-2-yloxy)-phenyl]-ethyl}-2,5-diaza-bicyclo[2.2.1]hept-2-yl)-(1-hydroxy-cyclopropyl)-methanone]
19 | 1170 nM | CS(=O)(=O)N1C[C@@H]2C[C@H]1CN2CCc1cccc(Oc2nc3ccccc3s2)c1 [Example 48, (S,S)-2-{3-[2-(5-Methanesulfonyl-2,5-diaza-bicyclo[2.2.1]hept-2-yl)-ethyl}phenoxy]benzothiazole]
20 | 450 nM | c1cc(CN2C[C@@H]3C[C@H]2CN3)cc(Oc2nc3ccccc3s2)c1 [Example 69, (S,S)-2-[3-(2,5-Diaza-bicyclo[2.2.1]hept-2-ylmethyl)-phenoxy]-benzothiazole hydrochloride]
21 | 225 nM | CS(=O)(=O)N1[C@@H]2CC[C@H]1C[C@@H](NCCOc1ccc(Oc3nc4cc(F)ccc4s3)cc1)C2 [Example 233, meso-endo-{2-[4-(5-Fluoro-benzothiazol-2-yloxy)-phenoxy]-ethyl}-(8-methanesulfonyl-8-aza-bicyclo[3.2.1]oct-3-yl)-amine]
22 | 34 nM | CC(=O)NC1[C@H]2CN(Cc3ccc(Oc4nc5ccccc5s4)cc3)C[C@@H]12 (stereo partly drawn) [Example 93, (R,S)—N-{3-[4-(Benzothiazol-2-yloxy)-benzyl]-3-aza-bicyclo[3.1.0]hex-6-yl}-acetamide]
23 | 3 nM | NC(=O)N1C[C@@H]2C[C@H]1CN2CCc1ccc(Oc2nc3ccccc3s2)cc1 [Example 38, (S,S)-5-{2-[4-(Benzothiazol-2-yloxy)-phenyl]-ethyl}-2,5-diaza-bicyclo[2.2.1]heptane-2-carboxylic acid amide]
24 | 38 nM | O=C(CO)N1C[C@H]2C[C@@H]1CN2Cc1ccc(Oc2nc3ccccc3s2)cc1 [Example 44, (R,R)-1-{5-[4-(Benzothiazol-2-yloxy)-benzyl]-2,5-diaza-bicyclo[2.2.1]hept-2-yl}-2-hydroxy-ethanone]
25 | 124 nM | CC(=O)N1C[C@H]2C[C@@H]1CN2CCOc1ccc(Oc2nc3ccc(C)cc3s2)cc1 [Example 180, (R,R)-1-(5-{2-[4-(6-Methyl-benzothiazol-2-yloxy)-phenoxy]-ethyl}-2,5-diaza-bicyclo[2.2.1]hept-2-yl)-ethanone]
26 | 90 nM | CS(=O)(=O)N[C@@H]1C[C@H]2CC[C@@H](C1)N2Cc1ccc(Oc2nc3cccc(Cl)c3s2)cc1 [Example 215, meso-exo-N-{8-[4-(7-Chloro-benzothiazol-2-yloxy)-benzyl]-8-aza-bicyclo[3.2.1]oct-3-yl}-methanesulfonamide]
27 | 164 nM | NC(=O)N1C[C@@H]2C[C@H]1CN2Cc1cccc(Oc2nc3ccccc3s2)c1 [Example 33, (S,S)-5-[3-(Benzothiazol-2-yloxy)-benzyl]-2,5-diaza-bicyclo[2.2.1]heptane-2-carboxylic acid amide]
28 | 508 nM | CC(=O)N1C[C@@H]2C[C@H]1CN2Cc1cccc(Oc2nc3ccccc3s2)c1 [Example 2, (S,S)-1-{5-[3-(Benzothiazol-2-yloxy)-benzyl]-2,5-diaza-bicyclo[2.2.1]hept-2-yl}-ethanone]
29 | 128 nM | CS(=O)(=O)N1C[C@H]2C[C@@H]1CN2CCOc1ccc(Oc2nc3cc(F)ccc3s2)cc1 [Example 168, (R,R)-5-Fluoro-2-{4-[2-(5-methanesulfonyl-2,5-diaza-bicyclo[2.2.1]hept-2-yl)-ethoxy]-phenoxy}-benzothiazole]
30 | 12 nM | NC(=O)N1C[C@H]2C[C@@H]1CN2CCc1ccc(Oc2nc3cc(F)ccc3s2)cc1 [Example 244, (R,R)-5-{2-[4-(5-Fluoro-benzothiazol-2-yloxy)-phenyl]-ethyl}-2,5-diaza-bicyclo[2.2.1]heptane-2-carboxylic acid amide]
31 | 34 nM | COCC(=O)N1C[C@@H]2C[C@H]1CN2CCc1ccc(Oc2nc3ccccc3s2)cc1 [Example 42]

Row | Compound | Ki
32 | meso-endo-[4-(6-Chloro-benzothiazol-2-yloxy)-benzyl]-(8-methanesulfonyl-8-aza-bicyclo[3.2.1]oct-3-yl)-amine [Example 228] | 1590 nM
